Measurements: paper PMC11904715, “Discovery of Novel Pyrrolidine-Based Chalcones as Dual Inhibitors of α-Amylase and α-Glucosidase: Synthesis, Molecular Docking, ADMET Profiles, and Pharmacological Screening” (ACS Omega, 2025)

How the values were obtained:
[1] = Cytotoxic activity, MTT cell viability assay, BEAS-2B; type: cell-based; details: human, BEAS-2B normal bronchial epithelial cells
Method: (§1) In this research, the nonsmall lung cancer (A549) and bronchial epithelial normal (BEAS-2B) cells were used for cytotoxicity experiments. All of the cells were cultured in Dulbecco’s Modified Eagle Medium (Gibco, USA) cell medium containing 10% fetal calf serum (FBS; Gibco, USA) and 1% penicillin/streptomycin (Gibco, USA) in an incubator at 37 °C and 5% CO2.[49],[50]
(§2) In a 96-well cell culture plate, cells were seeded at a density of 6 × 10^4 cells/mL and observed to be cultured for 24 h. The cells must have 70% confluence before chemical exposure. After 70% confluency incubation, the cells were treated with different concentrations of compounds for 24 h. All chemicals were dissolved in DMSO. […] The amount of DMSO contained in the chemical at the highest concentration was used as a negative control.
(§3) Cell viability was determined by 3-[4,5-dimethylthiazol-2-yl]-2,5-diphenyltetrazolium bromide (MTT) assay. This method is specifically used to evaluate live cells. The succinate dehydrogenase system of active mitochondria reduces the tetrazolium salt MTT to formazan.[51] For the MTT assay, MTT solution […] was added into the cells (200 μL/well) and incubated for 1 h at 37 °C. Absorbance was measured at 570 nm using an Epoch microplate spectrophotometer (BioTek Instruments, Winooska, VT).[52]

[2] = test system: nonsmall lung cancer (A549) cells; experiment: Cytotoxic activity, MTT cell viability assay, A549; type: cell-based; details: Homo sapiens, A549, 24 h
Method: as §1, §2, §3

α-glucosidase = α-glucosidase inhibitory activity, spectrophotometric p-nitrophenyl-α-D-glucopyranoside method; type: biochemical; details: for IC50: mean ± SEM of three parallel measurements, concentration range 50–100–200–400 μM, read-out: antidiabetic inhibition activity IC50 α-lucosidase
Method: Specifically, 50 μL of phosphate buffer (10 mM, pH 6.9), 25 μL of p-nitrophenyl-α-D-glucopyranoside in phosphate buffer (10 mM, pH 6.9), 10 μL of sample solution, and 25 μL of α-glucosidase (0.1 U/mL) in phosphate buffer (10 mM, pH 6.0) were combined in a 96-well microplate. After 20 min of incubation at 37 °C, 90 μL of Na2CO3 (100 mM) was added to each well to halt the enzymatic reaction. The absorbance was measured at 400 nm by using a 96-well microplate reader.
(§4) All biological activity data were taken in three parallel measurements for four different concentrations of each synthesis sample. The results of the biological activity analyses are presented as the IC50 values.

α-amylase = α-amylase inhibitory activity, spectrophotometric starch/Lugol method; type: biochemical; details: mean ± SEM of three parallel measurements; concentration range 50–100–200–400 μM; read-out: antidiabetic inhibition activity IC50 α-amylase
Method: Briefly, 25 μL of the sample solution at various concentrations was mixed with 50 μL of an α-amylase solution (0.1 U/mL) in a phosphate buffer (20 mM, pH 6.9, prepared with 6 mM NaCl) in a 96-well microplate. This mixture was preincubated at 37 °C for 10 min. Following the preincubation, 50 μL of a starch solution (0.05%) was added, and the reaction mixture was incubated for another 10 min at 37 °C. The reaction was then terminated by adding 25 μL of HCl (0.1 M), followed by the addition of 100 μL of Lugol’s solution for monitoring.
as §4

[3] = test system: bronchial epithelial normal (BEAS-2B) cells; experiment: Cytotoxic activity, MTT cell viability assay, BEAS-2B; type: cell-based; details: at the determined IC50 values
Method: as §1, §2, §3

alpha-amylase = target: alpha-amylase; design: method as in PMID 34064448, PMID 32525781, PMID 33272713, PMID 35832461, PMID 28495082; details: Figure 1 design strategy; cited from earlier work

Structure (SMILES) | IC50 at 24 h [1] [µM] | IC50 [2] [µM] | α-glucosidase inhibitory effect compared with acarbose (α-glucosidase) | IC50 (α-glucosidase) [µM] | IC50 (α-amylase) [µM] | toxic effect on healthy BEAS-2B cells [3] | IC50 (alpha-amylase) [µM]
O=C(/C=C/c1ccccc1)c1ccc(N2CCCC2)cc1 [Compound 1, (E)-3-Phenyl-1-(4-(pyrrolidin-1-yl)phenyl)prop-2-en-1-one] | > 100 | > 100 | better inhibitory effect | 50.2 ± 2.32 | – | – | –
O=C(/C=C/c1ccccc1F)c1ccc(N2CCCC2)cc1 [Compound 2, (E)-3-(2-fluorophenyl)-1-(4-(pyrrolidin-1-yl)phenyl)prop-2-en-1-one] | > 100 | > 100 | – | 189 ± 1.94 | 51.96 ± 0.12 | – | –
O=C(/C=C/c1cccc(F)c1)c1ccc(N2CCCC2)cc1 [Compound 3, (E)-3-(3-fluorophenyl)-1-(4-(pyrrolidin-1-yl)phenyl)prop-2-en-1-one] | > 100 | > 100 | better inhibitory effect | – | – | – | –
O=C(/C=C/c1ccc(F)cc1)c1ccc(N2CCCC2)cc1 [Compound 4, (E)-3-(4-fluorophenyl)-1-(4-(pyrrolidin-1-yl)phenyl)prop-2-en-1-one] | > 100 | > 100 | better inhibitory effect | 58.9 ± 3.26 | 30.63 ± 0.25 | – | –
O=C(/C=C/c1ccccc1C(F)(F)F)c1ccc(N2CCCC2)cc1 [Compound 5, (E)-1-(4-(pyrrolidin-1-yl)phenyl)-3-(2-(trifluoromethyl)phenyl)prop-2-en-1-one] | 97.7 | 82.2 | – | 173 ± 3.45 | 91.71 ± 0.28 | no toxic effects | –
O=C(/C=C/c1cccc(C(F)(F)F)c1)c1ccc(N2CCCC2)cc1 [Compound 6, (E)-1-(4-(pyrrolidin-1-yl)phenyl)-3-(3-(trifluoromethyl)phenyl)prop-2-en-1-one] | > 100 | > 100 | better inhibitory effect | 54.1 ± 2.87 | 83.78 ± 0.38 | – | –
O=C(/C=C/c1ccc(C(F)(F)F)cc1)c1ccc(N2CCCC2)cc1 [Compound 7, (E)-1-(4-(pyrrolidin-1-yl)phenyl)-3-(4-(trifluoromethyl)phenyl)prop-2-en-1-one] | > 100 | > 100 | better inhibitory effect | 46.5 ± 2.16 | 38.2 ± 0.83 | – | –
O=C(/C=C/c1cccc(OC(F)(F)F)c1)c1ccc(N2CCCC2)cc1 [Compound 8, (E)-1-(4-(pyrrolidin-1-yl)phenyl)-3-(3-(trifluoromethoxy)phenyl)prop-2-en-1-one] | > 100 | 60 | – | 147.5 ± 0.9 | – | no toxic effects | –
O=C(/C=C/c1ccc(OC(F)(F)F)cc1)c1ccc(N2CCCC2)cc1 [Compound 9, (E)-1-(4-(pyrrolidin-1-yl)phenyl)-3-(4-(trifluoromethoxy)phenyl)prop-2-en-1-one] | > 100 | > 100 | better inhibitory effect | 61.3 ± 2.48 | 39.97 ± 0.26 | – | –
O=C(/C=C/c1cc(C(F)(F)F)cc(C(F)(F)F)c1)c1ccc(N2CCCC2)cc1 [Compound 10, (E)-3-(3,5-bis(trifluoromethyl)phenyl)-1-(4-(pyrrolidin-1-yl)phenyl)prop-2-en-1-one] | > 100 | > 100 | better inhibitory effect | 44.2 ± 2.42 | 39.68 ± 0.27 | – | –
O=C(/C=C/c1cccc(C(F)(F)F)c1F)c1ccc(N2CCCC2)cc1 [Compound 11, (E)-3-(2-fluoro-3-(trifluoromethyl)phenyl)-1-(4-(pyrrolidin-1-yl)phenyl)prop-2-en-1-one] | > 100 | > 100 | – | 131 ± 3.02 | – | – | –
O=C(/C=C/c1ccc(C(F)(F)F)cc1F)c1ccc(N2CCCC2)cc1 [Compound 12, (E)-3-(2-fluoro-4-(trifluoromethyl)phenyl)-1-(4-(pyrrolidin-1-yl)phenyl)prop-2-en-1-one] | > 100 | > 100 | better inhibitory effect | 81.8 ± 0.85 | 80.11 ± 0.49 | – | –
O=C(/C=C/c1ccc(F)c(C(F)(F)F)c1)c1ccc(N2CCCC2)cc1 [Compound 13, (E)-3-(4-fluoro-3-(trifluoromethyl)phenyl)-1-(4-(pyrrolidin-1-yl)phenyl)prop-2-en-1-one] | > 100 | > 100 | – | 261.5 ± 1.69 | 83.8 ± 0.01 | – | –
O=C(/C=C/c1ccccc1)c1ccccc1 [trans-chalcone] | – | – | – | – | – | – | 96.4
